In patent US20100204149A1, “USE OF OCTREOTIDE AS A THERAPEUTIC AGENT” (priority 2007, published 2010):

What was measured:
[1] = tested on: Human A549 cells; assay: Apoptosis induction assay (Annexin-5); format: cell-based; settings: peptide 10 micrograms per ml, 24 hours
Source text: Human A549 cells (carcinomic human alveolar basal epithelial cells) were utilized in the experiments employing the Annexin-5 apoptosis assay. Annexin-5 is a member of a highly conserved protein family that binds acidic phospholipids in a calcium-dependent manner. […] Phosphatidylserine is translocated from the inner side of the plasma membrane to the outer layer when cells undergo death by apoptosis or cell necrosis and serves as a signal by which cell destined for death are recognized by phagocytes. Test peptide—10 micrograms per ml—were exposed for 24 hours to the A549 cells before they were analyzed for signs of apoptosis.

[2] = tested on: Pseudomonas aeruginosa; assay: Pseudomonas aeruginosa assay; format: cell-based; settings: peptide 10 micrograms per ml, read visually
Procedure: (§1) The antibacterial assay was conducted using clear, U-bottom 96-well microtiter plates. Cation-adjusted Mueller-Hinton Broth (MHB) was used for testing Pseudomonas aeruginosa. The peptide of the invention (0.1 ml of each—10 micrograms per ml—) was dispensed into wells in duplicate. Then the wells were inoculated with 5×10^5 CFU/mL Pseudomonas aeruginosa in 0.1 ml volume. For control purposes, each plate included 4 wells containing media without bacterial inoculum and 4 wells containing medium with inoculum but without peptide. The plates were incubated for 12 h at 37° C., and read visually 18-24 hours post-incubation. Growth control of Pseudomonas aeruginosa was examined first to determine adequacy of media preparations and growth conditions. Acceptable growth is defined as ≧2 mm wide button of cells at the bottom of each sample well, or obvious turbidity in the culture supernatant. Test wells were examined and scored as positive/negative for activity. A positive score for activity is based on complete inhibition of macroscopic growth of the test Pseudomonas aeruginosa.

[3] = tested on: Primary Human endothelial cells (HUVEC); assay: Endothelial cell migration assay; format: cell-based; settings: peptide 10 micrograms per ml, 22 hours
Procedure: Endothelial cell migration is a prerequisite for the process of neo-vascularization or angiogenesis which is crucial for on-site recruitment of blood vessel formation. Primary Human endothelial cells (HUVEC) were seeded in insert chambers with 3 micrometer pore size of multi-transwell plate for 6 hours at 37° C. in Endothelial Cell Basal Medium (EBM) supplemented with 0.1% bovine serum albumin. Thereafter, designated concentration of test peptide—10 micrograms per ml—was added in duplicate wells. The endothelia were allowed to migrate for 22 hours at 37° C., then, migrated cells were fixed and stained with Hoechst 33342 dye. Images of 3 fields per insert were taken and the number of migrated cells per field were quantified using the ImageProPlus software. Data were analyzed for the average number of the migrated cells and standard deviation of six data points for each treatment condition. Active test peptide against HUVEC migration was determined based on 50% inhibition of migrated cells as compared with the control. Statistic p values were computed using the Student's t-test.

[4] = tested on: Human Peripheral Blood Mononuclear Cells (PBMC); settings: B cell proliferation; peptide 10 micrograms per ml; 3 days
Procedure: Human Peripheral Blood Mononuclear Cells (PBMC) were obtained from normal human donors. The B cell proliferation was induced by stimulation of the cells with the B cell mitogen Staphylococcus aureus Cowans I (SAC) plus Interleukin-2, either in the absence (positive proliferation control), or in the presence of test peptide—10 micrograms per ml—to examine their effects on the B cell response. 10^5/well PBMC were plated in 96-well microtiter plates and assayed in duplicate with the peptide. Cell cultures were incubated at 37° C. for 3 days in a 5% CO2 incubator and were thereafter pulsed with 1 microCi/well ^3H-thymidine for additional 12 hours of culture. At the end of incubation time, the plates were harvested and the cells counted by liquid scintillation for the incorporation of ^3H-thymidine as a measure of B cell proliferation.

[5] = tested on: hepatitis B virus (HBV) ayw strain; assay: HBV replication assay, secreted HBV DNA by TaqMan PCR; format: cell-based; settings: HepG2-2.2.15; peptide 10 micrograms per ml; six days; HBV DNA in supernatant
[6] = Cell viability (dye uptake) in HBV assay; format: cell-based; settings: human, HepG2-2.2.15, peptide 10 micrograms per ml
[7] = tested on: Human A549 cells; assay: Apoptosis prevention assay (C2 ceramide, Annexin-5); format: cell-based; settings: pretreated 30 min with peptide 10 micrograms per ml
Source text: Human A549 cells (carcinomic human alveolar basal epithelial cells) were utilized in the experiments employing the Annexin-5 apoptosis assay. Annexin-5 is a member of a highly conserved protein family that binds acidic phospholipids in a calcium-dependent manner. […] Phosphatidylserine is translocated from the inner side of the plasma membrane to the outer layer when cells undergo death by apoptosis or cell necrosis and serves as a signal by which cell destined for death are recognized by phagocytes. A549 cells were pretreated for 30 min with test peptide -10 micrograms per ml—followed by the exposure to C2 ceramide. Ceramide mediates cell apoptosis through the activation of the mitogen activating protein kinase (MAPK) and the stress activated kinase (JNK/SAPK). C2 ceramide is a synthetic, membrane soluble analog of ceramide.

[8] = Cytotoxicity testing in MRC-5 cells (CellTiter 96); format: cell-based; settings: human, MRC-5 cells (embryonal lung fibroblasts); MRC-5 cells; 6 days incubation; read-out: % Cell viability
Procedure: For cytotoxicity testing, MRC-5 cells were seeded at 2,500 cells/well in 96 well plates using growth medium. […] The following day, peptide was added and tested in duplicates. After a 6 days incubation period, cell viability was measured using CellTiter 96 Solution (Promega). Plates were incubated for additional 4 hours at 37° C.

[9] = tested on: Streptococcus pneumoniae; assay: Streptococcus pneumoniae assay; format: cell-based; settings: peptide 10 micrograms per ml, read visually
Procedure: as §1, with “Streptococcus pneumoniae.” for “Pseudomonas aeruginosa.”, “Streptococcus pneumoniae” for “Pseudomonas aeruginosa”

[10] = tested on: RAW 264.7 cells; assay: Phagocytosis assay with Fluorescein-labeled Escherichia coli; format: cell-based, mouse; settings: peptide 10 micrograms per ml
Procedure: RAW 264.7 (Mouse leukaemic monocyte macrophage cell line) cells were obtained from ATCC and grown in RPMI 1640 medium containing 10% FBS. Cells were incubated in 12×75 mm tubes at 37° C. with test peptide—10 micrograms per ml—for 30 min prior to adding Fluorescein-labeled Escherichia coli bacteria as the agent to be ingested. After the cells were incubated for additional 60 min at 37° C. and allowed to ingest the Fluorescein-labeled Escherichia coli bacteria, cells were fixed with 1% paraformaldehyde. The samples were then analyzed by flow cytometry to determine the amount of phagocytosis as a function of brightness (the greater the phagocytic activity, the more fluorescence in the macrophage population). Data are reported as % positive and the mean fluorescence intensity (MFI) of positively stained cells.

[11] = Cytotoxicity (MTS cell viability) in HIV-1 assay; settings: human, CEM-SS cells

## C[C@@H](O)[C@@H]1NC(=O)[C@H](CCCCN)NC(=O)[C@@H](Cc2c[nH]c3ccccc23)NC(=O)[C@H](Cc2ccccc2)NC(=O)[C@@H](NC(=O)[C@H](N)Cc2ccccc2)CSSC[C@@H](C(=O)N[C@H](CO)[C@@H](C)O)NC1=O [Octreotide, H-D-Phe-Cys-Phe-D-Trp-Lys-Thr-Cys-L-threoninol]
[1]
  % of induction: 2.6%
[2]
  % inhibition: 0.0%
[3]
  % inhibition of migration: −24%
[4]
  % of SAC/IL2 induced control: 115.3%
[5]
  % inhibition of HBV replication in HEP G2 cells: 13.4%
[6]
  viability at 144 h, 10 micrograms per ml: 97.8%
[7]
  % prevention of ceramide induced apoptosis: 0.0%
[8]
  viability at 144 h: 100%
[9]
  % inhibition: 100.0%
[10]
  % of control phagocytosis: 105.9%
[11]
  viability at 10 micrograms per ml: 100%
